# According to patent publication US20240108702A1, “Use Of Naturally Occurring Cyclic Peptides For Treatment Of SARS-COV-2 Infection” (The University of Southern California, priority 2021, published 2024):
# Where a SMILES comes first, the peptide text is derived from it. Bridges are numbered along the chain shown (N, C = ends).
# Legend:
# [1] = Mouse model of LPS-induced acute lung injury (ALI), subcutaneous injection; conditions: in vivo, sc
# [2] = in vivo; conditions: rat
# [3] = in vivo; conditions: both, Sprague-Dawley, rat, iv
# [4] = target: TMPRSS2 (Homo sapiens, UniProt O15393); assay: Cellular TMPRSS2 inhibition assay in Caco-2 cells; format: cell-based; parameters: using Caco-2 and Calu3 cells, both of which express surface TMPRSS2; endogenous in cells; host or cells: Caco-2 cells
# Sequence of TMPRSS2 (O15393 whole entry): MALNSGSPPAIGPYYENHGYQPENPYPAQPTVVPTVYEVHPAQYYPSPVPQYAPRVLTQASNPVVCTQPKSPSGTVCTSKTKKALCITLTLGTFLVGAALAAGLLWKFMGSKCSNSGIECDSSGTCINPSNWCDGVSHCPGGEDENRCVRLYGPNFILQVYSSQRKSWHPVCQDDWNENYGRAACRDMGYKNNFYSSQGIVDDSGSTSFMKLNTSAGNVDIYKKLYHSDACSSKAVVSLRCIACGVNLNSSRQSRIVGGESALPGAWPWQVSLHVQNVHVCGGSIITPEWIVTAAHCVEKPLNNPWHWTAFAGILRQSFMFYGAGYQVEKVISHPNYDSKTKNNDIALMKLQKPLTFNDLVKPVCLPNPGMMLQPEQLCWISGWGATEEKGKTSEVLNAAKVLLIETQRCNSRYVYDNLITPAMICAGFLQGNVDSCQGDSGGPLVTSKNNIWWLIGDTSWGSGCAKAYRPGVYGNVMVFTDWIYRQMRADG
# Protocol: Caco-2 cells (1×10^5 per well) were incubated in 96 well plates with 0 to 50 μg/ml of the indicated peptide in the presence of a TMPRSS2 substrate (Boc-Leu-Gly-Arg-AMC) in 50 mM Tris-HCl, pH 7.4. Substrate conversion was monitored in a fluorescence plate reader for 2 hours and inhibition of enzyme activity was expressed relative to a solvent control.
# TMPRSS2 inhibition assays. Peptides (0-50 μg/ml) were tested for their inhibitory activities against TMPRSS2 in cellular assays using Vero E6 cells, Caco-2 cells, or Calu-3 cells using standard conditions. TMPRSS2 activity was assayed in real time for 120 min by monitoring the cleavage of the TMPRSS2 substrate, Boc-Leu-Gly-Arg-AMC. Following the 2 h enzyme assay, cells were evaluated for viability using the CellTiter-Glo cellular toxicity assay.
# [5] = in vivo; conditions: both, cynomolgus monkey, iv
compound,measurement,setting,value
"CC[C@H](C)[C@@H]1NC(=O)[C@@H]2CSSC[C@H](NC(=O)[C@H](CCCNC(=N)N)NC(=O)[C@@H]3CSSC[C@H](NC1=O)C(=O)N[C@@H]([C@@H](C)O)C(=O)N[C@@H](CCCNC(=N)N)C(=O)NCC(=O)N[C@@H](Cc1ccccc1)C(=O)N3)C(=O)N[C@@H](CC(C)C)C(=O)N[C@H]1CSSC[C@H](NC(=O)[C@H](C(C)C)NC(=O)CNC(=O)[C@H](CCCNC(=N)N)NC(=O)[C@H](CCCNC(=N)N)NC1=O)C(=O)N[C@@H](CCCNC(=N)N)C(=O)N2 [Peptide 1] (cyclo(GFCRCLCRRGVCRCICTR); disulfide 3-16, 5-14, 7-12)",AUC(0-inf),[1]; 5 mg/kg,3870 ng·h/mL
same,AUC(0-inf),[1]; 25 mg/kg,9000 ng·h/mL
same,MTD,[2],20 mg/kg
same,AUC,[3]; 5 mg/kg,15000 ng·h/mL
same,AUC(0-inf),[3]; 5 mg/kg,15900 ng·h/mL
same,Cmax,[3]; 5 mg/kg,7470 ng/mL
same,MRT,[3]; 5 mg/kg,4.37 h
same,Vd,[3]; 5 mg/kg,1.46 L/kg
same,clearance,[3]; 5 mg/kg,5.57 mL/min/kg
same,AUC,[3]; 5 mg/kg/day,12500 ng·h/mL
same,AUC(0-inf),[3]; 5 mg/kg/day,12700 ng·h/mL
same,Cmax,[3]; 5 mg/kg/day,10100 ng/mL
same,MRT,[3]; 5 mg/kg/day,2.92 h
same,Vd,[3]; 5 mg/kg/day,1.17 L/kg
same,clearance,[3]; 5 mg/kg/day,6.68 mL/min/kg
same,AUC,[3]; 10 mg/kg,41700 ng·h/mL
same,AUC(0-inf),[3]; 10 mg/kg,42100 ng·h/mL
same,Cmax,[3]; 10 mg/kg,27500 ng/mL
same,MRT,[3]; 10 mg/kg,2.88 h
same,Vd,[3]; 10 mg/kg,0.691 L/kg
same,clearance,[3]; 10 mg/kg,4 mL/min/kg
same,AUC,[3]; 10 mg/kg/day,34100 ng·h/mL
same,AUC(0-inf),[3]; 10 mg/kg/day,34700 ng·h/mL
same,Cmax,[3]; 10 mg/kg/day,21800 ng/mL
same,MRT,[3]; 10 mg/kg/day,3.45 h
same,Vd,[3]; 10 mg/kg/day,1.01 L/kg
same,clearance,[3]; 10 mg/kg/day,4.88 mL/min/kg
same,AUC,[3]; 20 mg/kg,127000 ng·h/mL
same,AUC(0-inf),[3]; 20 mg/kg,127000 ng·h/mL
same,Cmax,[3]; 20 mg/kg,35400 ng/mL
same,MRT,[3]; 20 mg/kg,4.81 h
same,Vd,[3]; 20 mg/kg,0.758 L/kg
same,clearance,[3]; 20 mg/kg,2.62 mL/min/kg
same,IC50,[4],3.12 to 3.84 µM
same,MTD at 7 days,[5],15 mg/kg
same,NOAEL at 7 days,[5]; 15 mg/kg,15 mg/kg/day
